Test results taken from patent US8110217B2, “Sphingomyelin liposomes for the treatment of hyperactive bladder disorders” (priority 2001, dated 2012).
Entries after “also recorded” stand apart in the source; their conditions may differ.

Experiments:
Assay type in all cases: in vivo, female Sprague-Dawley rats
[1] = system: hyperactive bladder (acetic acid); test: Continuous CMG, hyperactive bladder induced by acetic acid (Examples 5-6)
Description: (§1) This was followed by instillation of liposomes (LP) in saline (in the case of the former) or LP/KCl.
(§2) Intravesical bladder pressure was recorded via a transurethral catheter in adult female Sprague-Dawley rats anesthetized with urethane (1.2 g/kg) administered by subcutaneous injection (sc). Some animals were pretreated with capsaicin (125 mg/kg, sc) four days prior to the experiments. […] Parameters measured included intercontraction interval (ICI), amplitude of bladder contractions, compliance and micturition pressure threshold (PT).
(§3) Animal Preparation. Thirty-four female Sprague-Dawley rats (250-300 g) were used in this study. Animals were anesthetized with urethane (1.2 g/kg, sc). Body temperature was maintained in the physiological range using a heating lamp.
(§4) Cystometrogram (CMG). A transurethral bladder catheter (PE-50) was connected via a three-way stopcock to a pressure transducer and to a syringe pump. This was used to record intravesical pressure and to infuse solutions into the bladder. A control CMG was performed by slowly filling the bladder with saline (0.04 ml/min) to elicit repetitive voiding. The parameters recorded were amplitude, PT, compliance, and ICI of reflex bladder contractions. Measurements in each animal represented the average of 3 to 5 bladder contractions.
(§5) Induction of a Hyperactive Bladder. […] L. Cheng et al., 1993, Am. J. Physiol. 265:R132-138). The experimental design is illustrated in FIG. 7. The KCl concentration used was within the range of concentrations present in normal rat urine (M. Ohnishi et al., 2001, Toxicol. Appl. Pharmacol. 174:122-129).
(§6) Preparation of Liposomes (LP). LP were prepared as described by Kirby and Gregoriadis (C. J. Kirby and G. Gregoriadia, 1984, “A simple procedure for preparing liposomes capable of high encapsulation efficiency under mild conditions,” Liposome Technology; G. Gregnoriadis, Ed., C.R.C. Press, Inc., Boca Raton, Fla., Vol. 1, p. 20). Briefly, LP were constructed as a 2:1 molar ratio of L-α-phosphatidylcholine and cholesterol (Sigma Chemical Co., St. Louis, Mo.) to a final lipid concentration of 2 mg/ml in saline. Lipids in chloroform were dried down together in the proper ratio under nitrogen. The residues were reconstituted as LP in saline or 500 mM KCl by intense sonication.
(§7) Statistical Analyis. Statistical analyses were performed using Student's t test for paired or unpaired data, where applicable. A p-value less than 0.05 was considered significant. All data are expressed in Example 2 (below) as means±S.E.

[2] = system: acute hyperactive bladder; test: Continuous CMG, acute hyperactive bladder model with intravesical PS and KCl (Examples 7-8)
Description: An animal model for acute hyperactive bladder in rats was developed using intravesical infusion of PS, an agent used to break down urothelial barrier function and physiological concentrations of KCl.
Continuous CMGs were performed in urethane-anesthetized female rats. The bladder was filled (0.04 ml/min) with normal saline followed by intravesical infusion for a 60 minute period with a test solution comprising either KCl (100 or 500 mM) or PS (10 or 30 mg/ml). Following this, 10 mg/ml PS treated animals were infused intravesically with 100, 300 or 500 mM KCl. Some animals were pretreated with capsaicin ([…], sc) four days before the experiments.
Animal Preparation. The study was performed on 40 female Sprague-Dawley rats weighing 250-300 gm. Animals were anesthetized with 1.2 gm/kg urethane injected subcutaneously. Body temperature was maintained in the physiological range using a heating lamp.
Cystometrogram (CMG). PE-50 tubing (Clay-Adams, Parsippany, N.J.) was inserted into the bladder through the urethra and connected via a three-way stopcock to a pressure transducer and to a syringe pump. This was used for recording intravesical pressure and for infusing solutions into the bladder. A control CMG was performed by slowly filling the bladder with saline (0.04 ml/min) to elicit repetitive voiding. The amplitude, PT, compliance and intercontraction interval (ICI) of reflex bladder contractions were recorded. Pressure threshold (PT) represents the pressure that induces the initial bladder contraction. PT often has been used as a parameter corresponding to afferent nerve activity for the induction of reflex bladder contractions. Measurements in each animal represented the average of 3 to 5 bladder contractions.
After performing control CMGs with saline infusion, three intravesical infusion experiments were performed in parallel: (1) infusion of KCl (100 or 500 mM in saline) for one hour (N=4 in each group); (2) infusion of PS (Sigma Chemical Co.; 30 mg/ml in saline) for one hour (N=6); and (3) infusion of PS (10 mg/ml) for one hour, followed by 100, 300 or 500 mM KCl for one hour (N=6, in each subgroup). In four animals, capsaicin dissolved in a vehicle containing 10% ethanol, 10% TWEEN®80 and 80% physiological saline, at a concentration of 20 mg/ml was given subcutaneously in divided doses on 2 consecutive days. The doses included 25 and 50 mg/kg at a 12-hour interval on the first day and 50 mg/kg on the second day, as previously described (C. L. Cheng et al., 1993, Am. J. Physiol. 265:R132-138). All injections were performed under halothane anesthesia. Four days after the last dosage of capsaicin, the animals were anesthetized and treated with intravesical administration of PS (10 mg/ml) for 1 hour followed by KCl (500 mM) infusion.
Suppression of Micturition Reflex. To evaluate the direct effects of potassium on detrusor muscle, micturition reflex was blocked in 4 animals by either intravenous hexamethonium injection (25 mg/kg) (N=2) or transection of bilateral pelvic nerves (N=2).
Statistical Analysis. Statistical analyses were performed using Student's t test for paired or unpaired data, as applicable, with p<0.05 considered significant. Quantitative data are expressed in Example 8 (below) as means plus or minus standard error.

[3] = system: chemically induced bladder hyperactivity; test: Cystometrogram (CMG): liposomes of various lipids infused in the presence of KCl after protamine sulfate (Examples 1-4)
Source text: Bladder reflex activity in thirty-four (34) female Sprague-Dawley rats (200-250 g) was studied by cystometry performed under anesthesia with urethane (1.2 g/kg) administered by subcutaneous injection. Body temperature was maintained in the physiologic range using a heating lamp. A transurethral bladder catheter (PE-50) connected by a three-way stopcock to a pressure transducer and to a syringe pump was used to record intravesical pressure and to infuse solutions into the bladder. A control cystometrogram (CMG) was performed by slowly filling the bladder with saline at a rate of 0.04 ml/min to elicit repetitive voiding. The bladder contraction frequency of the reflex bladder contractions were recorded. After performing control CMGs with saline infusion for 3 hours, protamine sulfate (PS) (Sigma Chemical; 10 mg/ml) was infused at a rate of 0.04 ml/min for 1 hour to increase epithelial permeability followed by infusion of the irritant KCl (500 mM) for 1 hour. Subsequently, liposomes made from lipids of various compositions then were infused in the presence of a high concentration of KCl for 2 hours.
The effect of charge on the lipid headgroup in reducing bladder activity in three animal groups (n=5) was determined. Neutrally charged liposomes prepared with L-α-PC (a zwitterionic lipid egg PC) were compared against liposomes having either a positively or negatively charged polar headgroup, namely, 1,2-dioleoyl-3-trimethylammonium-propane (DOTAP) and 1-α-phosphatidylserine (POPS), respectively.
Liposomes were prepared as described by Kirby and Gregoriadis (Kirby, C. J. and Gregoriadia, G., “A simple procedure for preparing liposomes capable of high encapsulation efficiency under mild conditions,” Liposome Technology, G. Gregnoriadis, Ed., C.R.C. Press, Inc., Boca Raton, Fla., 1984, Vol. 1, p. 20, 1984). Briefly, liposomes were constructed as a 2:1 molar ratio of L-α-phosphatidylcholine and cholesterol (Sigma Chemical Co., St. Louis, Mo.) to a final lipid concentration of 1-2 mg/ml in saline. Lipids in chloroform were dried down together in the proper ratio under nitrogen. The residues were reconstituted as liposomes in saline or 500 mM KCl by intense sonication. This lipid composition produced liposomes with no net charge.
Statistical analyses were performed using Student's t test for paired or unpaired data, where applicable. A P-value less than 0.05 was considered significant. All data were expressed as means±S.E. (standard error).
Neutrally charged liposomes prepared with sphingomyelin were compared against liposomes prepared from dihydrosphingomyelin and two pure synthetic lipids: 1,2-distearoyl-sn-glycero-3-phosphocholine (DSPC) and 1,-oleoyl-2-stearoyl-sn-glycero-3-phosphocholine (OSPC).
The methodology of this investigation is the same as described above in Example 1 with the exception that the preparation of liposomes was modified from Example 1. Briefly, liposomes were constructed as a 2:1 molar ratio of sphingomyelin and cholesterol (Sigma Chemical Co., St. Louis, Mo.) to a final lipid concentration of 1-2 mg/ml in saline. Lipids in chloroform were dried down together in the proper ratio under nitrogen. The residues were reconstituted as liposomes in saline or 500 mM KCl by intense sonication. This lipid composition produced sphingomyelin liposomes with no net charge.
Sphingomyelin devoid of its phosphorylcholine head group generates the molecule ceramide, a well known lipid second messenger which mediates a wide range of cellular responses to external stimuli, and also is used for the biosynthesis of sphingomyelin and glycosphingolipids. Because ceramide cannot form stable liposomes by itself, its effect on bladder hyperactivity was tested by including it at 1 mol % in an inert lipid, namely, 1,2-distearoyl-sn-glycero-3-phosphocholine (DSPC).
The methodology of this investigation is the same as described above in Example 1 with the exception that the preparation of liposomes was modified from Example 1. […]

[4] = system: hyperactive bladder (PS/KCl); test: Continuous CMG, hyperactive bladder induced by PS/KCl (Examples 5-6)
Description: as §1, §2, §3, §4, §5, §6, §7

[5] = AA 1 hr in capsaicin pretreated rats, N=4
[6] = AA 2 hr in capsaicin pretreated rats, N=4
[7] = AA at 1 hour, capsaicin pretreated animals
[8] = AA at 2 hours, capsaicin pretreated animals
[9] = Table 2A series: saline, AA 0.1% 1 h, LP 2 h, N=6
[10] = Table 2B series: saline, AA 0.1% 1 h, saline, N=6
[11] = Table 2C series: saline, LP 1 h, AA 1 h, N=6
[12] = Table 1A: PS 10 mg/ml infusion 1 hour after saline, N=6

COc1cc(CNC(=O)CCCCC=CC(C)C)ccc1O [capsaicin, 8-methyl-N-vanillyl-6-nonenamid]
delay of bladder hyperactivity evoked by AA ([1]; capsaicin pretreated animals): 0.5 to 1 h
delay of onset of the irritative effects of AA ([1]; pretreatment with capsaicin 125 mg/kg sc four days before): 30 to 60 min
ICI decrease ([2]; capsaicin pretreated animals, PS 10 mg/ml then KCl 500 mM, 2 hours of infusion): 35.5%
delay of hyperactive bladder ([2]; capsaicin pretreated animals, sequential PS 10 mg/ml and KCl 500 mM): about 1 hour
delay of onset of irritative effects ([2]; capsaicin pretreatment, PS 10 mg/ml then KCl 500 mM): ~60 min
PS/KCl-induced bladder hyperactivity after capsaicin pretreatment ([2]; capsaicin sc in divided doses, four days before): suppressed PS/KCl-induced bladder hyperactivity

ceramide
effect on efficacy of DSPC liposomes in reducing bladder contraction frequency ([3]; included at 1 mol % in DSPC liposomes): significantly increased the efficacy of DSPC

1-alkyl-2-acetoyl-sn-glycero-3-phosphocholine [PAF]
bladder reflex activity ([3]; instilled alone or included with DSPC liposomes at 1-5 mol %): aggravated the bladder reflex activity

CC(=O)O [AA, acetic acid]
compliance reduction ([1]; AA 0.1%, two series of experiments): 71-76%
ICI ([1]; AA 1 hr in capsaicin pretreated rats (125 mg/kg sc, four days before), N=4): 10.2 ± 3.0 min
Amplitude [1, 5]: 20.9 ± 2.5 cm H2O
Compliance [1, 5]: 0.152±0.028 ml/cm H2O
PT [1, 5]: 6.7 ± 0.2 cm H2O
Amplitude [1, 6]: 23.6 ± 5.7 cm H2O
Compliance [1, 6]: 0.082±0.024 ml/cm H2O
ICI [1, 6]: 4.6 ± 1.2 min
PT [1, 6]: 6.7 ± 0.7 cm H2O
ICI reduction [1, 7]: 51%
compliance reduction [1, 7]: 33%
ICI decrease [1, 8]: 78%
compliance decrease [1, 8]: 64%
Amplitude change ([1]; AA infusion): slight increase
PT change ([1]; AA infusion): not significantly changed
bladder hyperactivity in CMG tracings / summary ([1]; FIGS. 10A-10F, summary of Examples 5-6): elicited bladder hyperactivity
Amplitude [1, 9]: 36.8 ± 6.5 cm H2O
Compliance [1, 9]: 0.071±0.016 ml/cm H2O
ICI [1, 9]: 2.4 ± 0.5 min
PT [1, 9]: 8.3 ± 0.9 cm H2O
Amplitude [1, 10]: 37.0 ± 7.0 cm H2O
Compliance [1, 10]: 0.079±0.026 ml/cm H2O
ICI [1, 10]: 2.9 ± 0.9 min
PT [1, 10]: 9.1 ± 1.4 cm H2O
Amplitude [1, 11]: 38.0 ± 1.3 cm H2O
Compliance [1, 11]: 0.071 ± 0.022 ml/cm H2O
ICI [1, 11]: 3.1 ± 0.8 min
PT [1, 11]: 6.7 ± 0.7 cm H2O
time until irritative effect evident ([1]; following AA infusion): 20 to 30 min

protamine sulfate [PS]
Amplitude [4, 12]: 27.5 ± 0.7 cm H2O
Compliance [4, 12]: 0.210 ± 0.031 ml/cm H2O
ICI [4, 12]: 14.9 ± 1.7 min
PT [4, 12]: 5.9 ± 0.9 cm H2O
change of ICI / CMGs ([4]; infused alone: PS 10 mg/ml or KCl 500 mM): not changed; also recorded: did not significantly change the CMGs
Amplitude ([2]; 10 mg/ml PS, one hour, N=18): 25.3 ± 2.0 cm H2O
Compliance ([2]; 10 mg/ml PS, one hour, N=18): 0.176 ± 0.013 ml/cm H2O
ICI ([2]; 10 mg/ml PS, one hour, N=18): 17.8 ± 0.7 min
PT ([2]; 10 mg/ml PS, one hour, N=18): 3.4 ± 0.9 cm H2O
Amplitude ([2]; 30 mg/ml PS, one hour, N=6): 28.3 ± 3.1 cm H2O
Compliance ([2]; 30 mg/ml PS, one hour, N=6): 0.083 ± 0.022 ml/cm H2O
ICI ([2]; 30 mg/ml PS, one hour, N=6): 2.7 ± 0.7 min
PT ([2]; 30 mg/ml PS, one hour, N=6): 7.8 ± 1.1 cm H2O
ICI decrease ([2]; PS 30 mg/ml): 80.6%
PT increase ([2]; PS 30 mg/ml): 36.8%
compliance decrease ([2]; PS 30 mg/ml): 63.6%
delay to irritative effect ([2]; PS 30 mg/ml): 40 to 45 min
bladder hyperactivity ([2]; high concentrations of PS): induced bladder hyperactivity (decreased ICI)
irritative effects / CMG parameters ([2]; low concentration of PS (10 mg/ml), one hour): not observed; also recorded: no significant change; also recorded: produced no effect
